# In patent publication US12714706B2, “Methods of treating small cell lung cancer with lurbinectedin formulations” (PHARMA MAR, S.A., priority 2019, dated 2026):
# Experiments:
# [1] = system: SCLC patients; assay: Phase 2 trial of lurbinectedin monotherapy in SCLC: safety evaluation (NCI-CTCAE v4); type: in vivo, human
# Experimental: Patients were evaluated for safety if they had received any partial or complete infusion of lurbinectedin. All adverse events were graded according to the National Cancer Institute-Common Toxicity Criteria for Adverse Events (NCI-CTCAE, v4). The safety profile of patients was monitored throughout the treatment and up to 30 days after the last lurbinectedin infusion (end of treatment), or until the patient started a new anti-tumor therapy or until the date of death, whichever occurred first. Treatment delays, dose reduction requirements, transfusions, and reason for treatment discontinuation was monitored throughout the study. Any treatment-related adverse events were followed until recovery to at least grade 1 or stabilization of symptoms or until the start of a new anti-tumor therapy, whichever occurred first.
# [2] = system: SCLC; assay: Phase 2 trial of lurbinectedin monotherapy in SCLC: antitumor activity (ORR, DOR, PFS, OS; RECIST v1.1); type: in vivo, human
# [3] = lurbinectedin single agent 3.2 mg/m2 (ref); n=329; mean (SD); cited from earlier work
# [4] = 105 SCLC patients, 3.2 mg/m^2 q3wk
# [5] = biochemical abnormality regardless of relation to study drug, patients with laboratory data, NCI-CTCAE v4.0, SCLC
# [6] = haematological abnormality regardless of relation to study drug, NCI-CTCAE v4.0, 105 treated SCLC patients
# [7] = treatment-related adverse event, NCI-CTCAE v4.0, 105 treated SCLC patients
# [8] = chemotherapy-free interval 90 days or longer (sensitive)
structure (smiles),measurement,setting,value
"COc1ccc2[nH]c3c(c2c1)CCN[C@]31CS[C@@H]2c3c(OC(C)=O)c(C)c4c(c3[C@H](COC1=O)N1[C@@H]2[C@H]2c3c(cc(C)c(OC)c3O)C[C@@H]([C@@H]1O)N2C)OCO4 [lurbinectedin, Lurbinectedin]",Patients with dose delays caused by neutropenia,[1]; 105 SCLC patients,12%
same,Patients with dose reductions caused by neutropenia,[1]; 105 SCLC patients,16%
same,Patients with dose administration delayed because of treatment-related adverse events,[1]; [4],22%
same,Patients with dose reduced because of treatment-related adverse events,[1]; [4],26%
same,Discontinuation because of treatment-related adverse events,[1]; 105 treated patients,2%
same,Drug-induced liver injury,[1]; 105 treated patients,no cases
same,Grade 3-4 anemia,[1]; 105 treated patients,9%
same,Grade 3-4 febrile neutropenia,[1]; 105 treated patients,5%
same,Grade 3-4 leukopenia,[1]; 105 treated patients,29%
same,Grade 3-4 neutropenia,[1]; 105 treated patients,46%
same,Grade 3-4 thrombocytopenia,[1]; 105 treated patients,7%
same,Grade 3 pneumonia,[1]; 105 treated patients,2%
same,Patients who received G-CSF secondary prophylaxis or therapy for neutropenia,[1]; 105 treated patients,22%
same,Serious treatment-related adverse events,[1]; 105 treated patients,10%
same,Serious treatment-related febrile neutropenia,[1]; 105 treated patients,5%
same,Serious treatment-related neutropenia,[1]; 105 treated patients,5%
same,Treatment-related deaths,[1]; 105 treated patients,No treatment-related deaths
same,"Alanine aminotransferase, Grade 4",[1]; [5],0 n (%) of patients
same,"Alkaline phosphatase, Grade 4",[1]; [5],0 n (%) of patients
same,"Aspartate aminotransferase, Grade 4",[1]; [5],0 n (%) of patients
same,"Creatinine, Grade 3",[1]; [5],0 n (%) of patients
same,"Creatinine, Grade 4",[1]; [5],0 n (%) of patients
same,"Anaemia, Grade 1-2",[1]; [6],91 (87%) n (%) of patients
same,"Anaemia, Grade 3",[1]; [6],9 (9%) n (%) of patients
same,"Anaemia, Grade 4",[1]; [6],0 n (%) of patients
same,"Leucopenia, Grade 1-2",[1]; [6],53 (50%) n (%) of patients
same,"Leucopenia, Grade 3",[1]; [6],20 (19%) n (%) of patients
same,"Leucopenia, Grade 4",[1]; [6],10 (10%) n (%) of patients
same,"Neutropenia, Grade 1-2",[1]; [6],27 (26%) n (%) of patients
same,"Neutropenia, Grade 3",[1]; [6],22 (21%) n (%) of patients
same,"Neutropenia, Grade 4",[1]; [6],26 (25%) n (%) of patients
same,"Thrombocytopenia, Grade 1-2",[1]; [6],39 (37%) n (%) of patients
same,"Thrombocytopenia, Grade 3",[1]; [6],3 (3%) n (%) of patients
same,"Thrombocytopenia, Grade 4",[1]; [6],4 (4%) n (%) of patients
same,"Decreased appetite, Grade 1-2",[1]; [7],22 (21%) n (%) of patients
same,"Decreased appetite, Grade 3",[1]; [7],0 n (%) of patients
same,"Decreased appetite, Grade 4",[1]; [7],0 n (%) of patients
same,"Diarrhoea, Grade 1-2",[1]; [7],13 (14%) n (%) of patients
same,"Diarrhoea, Grade 3",[1]; [7],1 (1%) n (%) of patients
same,"Diarrhoea, Grade 4",[1]; [7],0 n (%) of patients
same,"Fatigue, Grade 1-2",[1]; [7],54 (51%) n (%) of patients
same,"Fatigue, Grade 3",[1]; [7],7 (7%) n (%) of patients
same,"Fatigue, Grade 4",[1]; [7],0 n (%) of patients
same,"Febrile neutropenia, Grade 1-2",[1]; [7],0 n (%) of patients
same,"Febrile neutropenia, Grade 3",[1]; [7],2 (2%) n (%) of patients
same,"Febrile neutropenia, Grade 4",[1]; [7],3 (3%) n (%) of patients
same,"Nausea, Grade 1-2",[1]; [7],34 (32%) n (%) of patients
same,"Nausea, Grade 3",[1]; [7],0 n (%) of patients
same,"Nausea, Grade 4",[1]; [7],0 n (%) of patients
same,"Pneumonia, Grade 1-2",[1]; [7],0 n (%) of patients
same,"Pneumonia, Grade 3",[1]; [7],2 (2%) n (%) of patients
same,"Pneumonia, Grade 4",[1]; [7],0 n (%) of patients
same,"Skin ulcer, Grade 1-2",[1]; [7],0 n (%) of patients
same,"Skin ulcer, Grade 3",[1]; [7],1 (1%) n (%) of patients
same,"Skin ulcer, Grade 4",[1]; [7],0 n (%) of patients
same,"Vomiting, Grade 1-2",[1]; [7],19 (18%) n (%) of patients
same,"Vomiting, Grade 3",[1]; [7],0 n (%) of patients
same,"Vomiting, Grade 4",[1]; [7],0 n (%) of patients
same,Overall response rate (CR + PR),"[2]; IRC assessment, overall (n = 105)",30.5%
same,"Duration of response, median","[2]; IRC assessment, resistant disease (CTFI <90 days)",4.8 months
same,Overall response rate (CR + PR),"[2]; IRC assessment, resistant disease (CTFI <90 days, n = 45)",13.3%
same,"Duration of response, median","[2]; IRC assessment, sensitive disease (CTFI ≥90 days)",5.3 months
same,Overall response rate (CR + PR),"[2]; IRC assessment, sensitive disease (CTFI ≥90 days, n = 60)",43.3%
same,"Duration of response, median","[2]; Investigator assessment, overall",5.3 months
same,"Duration of response, median","[2]; Investigator assessment, resistant disease (CTFI <90 days)",4.7 months
same,"Duration of response, median","[2]; Investigator assessment, sensitive disease (CTFI ≥90 days)",6.2 months
same,Overall response rate (CR + PR),"[2]; Investigator assessment, sensitive disease (CTFI ≥90 days, n = 60)",45.0%
same,Median progression-free survival,"[2]; Investigator-assessed, overall population",3.5 months
same,Patients alive at 1 year after the first dose,[2]; chemotherapy-free interval 90 days or longer (n = 60),48%
same,Median overall survival,[2]; [8],11.9 months
same,Median progression-free survival,[2]; [8],4.6 months
same,Median overall survival,[2]; overall population,9.3 months
same,Median overall survival of patients with initial objective response (post-hoc),[2]; responders with sensitive disease,15.8 months
same,CL,[3],12.4 (7.6) L/h
same,Cmax,[3],127.5 (100.2) ug/L
same,HL,[3],42.6 (38.4) h
same,Vz,[3],664.7 (460.3) L
